The source of these data is paper PMC12268802, “The herbicidal natural product phosphonothrixin is an inhibitor of the riboflavin biosynthetic enzyme L‐3,4‐dihydroxy‐2‐butanone‐4‐phosphate synthase” (Pest Management Science, 2025).

The IC50 is the concentration needed to halve the response being measured. As usually defined, the Km is the concentration of substrate that gives half-maximal velocity.

Series [1] has as its system imidazoleglycerol phosphate dehydratase. The arrangement: method as in PMID 12228396. As to conditions: cited from earlier work.
The conditions of series [2]: cited from earlier work.
Another series deals with EPSP synthase. The arrangement: method as in PMID 1939260. As to conditions: from several higher plants; cited from earlier work.
For a further series, the system named is Lemna gibba. As to the kind of experiment: Lemna gibba growth assay. Format: in vivo. The note with it: 7 days. As for the experimental part:
Growth experiments were performed in sterile 6‐well cell culture plates and were initiated by transferring four Lemna gibba fronds per well to 5 mL of K‐medium[22] pH 4.8 containing 1% (w/v) sucrose and a selected concentration of phosphonothrixin (1) and riboflavin determined from previous experiments. The cell culture plates were incubated for 7 days in a growth cabinet at 22 °C and a continuous photon flux density of 75 μE/m^2s.

The target in series [3] is dihydroxy‐acid dehydratase. The arrangement: method as in PMID 29995859. The note with it: Arabidopsis enzyme; cited from earlier work.
Substrate in the series “DHBPS activity assay”: O=C(CO)[C@H](O)[C@H](O)COP(=O)(O)O
The experiment in a line: DHBPS activity assay. The note with it: other: substrate varied 0 to 2 mM; pH 6.5. Format: biochemical, Arabidopsis thaliana. On the procedure:
DHBPS activity assays were out carried in 96‐well microtiter plates using a modification of the procedure previously described.[18] The reaction mixture contained 100 mM MES (2‐morpholinoethanesulfonic acid) buffer pH 6.5, 20 mM MgCl2, 20 mM D‐ribose‐5‐phosphate (Sigma‐Aldrich R7750), 0.02% Tween‐20, 0.2 mg BSA, 0.5 μg of spinach phosphoriboisomerase (Sigma‐Aldrich P9752) and DHBPS enzyme in a final volume of 110 μL. Assays were initiated by adding enzyme and terminated after 120 min incubation at rt by the addition of 90 μL of a solution of 3.5% α‐naphthol and 0.2% creatine in 2 N NaOH. After an additional 45 min incubation at rt the absorbance was determined at 540 nm. The pI50‐value for inhibition by phosphonothrixin (1) was determined with the XLFit Excel add‐in version 4.3.1 curve fitting program of ID Business Solutions Limited. […] Reaction velocities were fitted to the Michaelis–Menten equation with the XLFit curve fitting program.

The mark [4] stands for this setting: 50 μM riboflavin in the presence of 100 μM phosphonothrixin.

As to `O=P(O)(O)[C@H]1CCC[C@@](O)(c2nc[nH]n2)C1` (relative stereo) [IRL1803, trans‐(3‐hydroxy‐3‐(1H‐1,2,4‐triazol‐3‐yl)cyclohexyl)‐phosphonic acid], the “potency against imidazoleglycerol phosphate dehydratase” value in series [1] is “nanomolar inhibitor”. In series [2], the “application rate required for a significant herbicidal effect” value is given as about 1 kg ha^−1.

On to `O=C(O)CNCP(=O)(O)O` [glyphosate], for which the “IC50-values, EPSP synthase” value in the series with EPSP synthase was “single and double‐digit micromolar range”.

In the case of `Cc1cc2nc3c(=O)[nH]c(=O)nc-3n(C[C@H](O)[C@H](O)[C@H](O)CO)c2cc1C` [riboflavin], in the series on Lemna gibba (50 μM riboflavin alone), the “bleaching of Lemna gibba fronds” value is listed as “some mild bleaching of the fronds” and the “growth of Lemna gibba” value is given as “did not affect the growth”. For the same molecule, in the series with Lemna gibba (setting [4]), the “reversal of bleaching of Lemna gibba” value is given as “reversed the bleaching phenotype to the level observed in the experiment where only riboflavin had been applied” and the “reversal of growth inhibition of Lemna gibba” value was “almost completely alleviated the growth inhibition”.

On to aspterric acid, for which the IC50 in series [3] was 500 nM.

B1: AtDHBPS (Arabidopsis thaliana) (protein)
chain: MFVAEDDDFELDLPTPGFSSIPEAIEDIRQGKLVVVVDDEDRENEGDLVMAAQLATPEAMAFIVRHGTGIVCVSMKEDDLERLHLPLMVNQKENEEKLSTAFTVTVDAKHGTTTGVSARDRATTILSLASRDSKPEDFNRPGHIFPLKYREGGVLKRAGHTEASVDLTVLAGLDPVGVLCEIVDDDGSMARLPKLREFAAENNLKVVSIADLIRYRRKRDKLVERASKGGRADPAFLYKVVINSKLEGKPIPNPLLGLDSTRTGHHHHHH
notes: made in house; host or cells: Escherichia coli BL21(DE3)
B1: the Km in “DHBPS activity assay” amounted to 150 ± 20 µM.
